Data set [1] can be described thus: In vitro liver microsome assay, human. It is filed as in vitro ADME. To be noted: pooled liver microsomes. (In general: Microsomes from liver hold many membrane-bound enzymes, among them those of drug oxidation.)
A short description of data set [2]: In vitro liver microsome assay, mouse. It is filed as in vitro ADME. To be noted: pooled liver microsomes.
Data set [3] concerns T. b. brucei (strain BF427). The data set can be described thus: T. brucei growth inhibition assay. It counts as cell-based. The settings on record: T. b. brucei BF427, 48 h, Alamar Blue. On the technique in general: The colour change of resazurin is a common sign of viable cells or microbes.
The subject of data set [4] is HepG2 cells (human hepatocellular carcinoma). The data set can be described thus: Cytotoxicity in mammalian cells, HepG2. It is filed as cell-based. To be noted: human hepatocytes, 48 h, growth inhibition by 50%.
Data set [5] is described as follows: Efficacy PK in chronic model. It counts as in vivo, mice. To be noted: 50 mg/kg po b.i.d., prior to dose 15 (predose).
Data set [6] is described as follows: Brain time-course experiment of compound 57 after oral dosing. It counts as in vivo. To be noted: mice, single oral dose 50 mg/kg.
A short description of data set [7]: Brain:plasma compound concentration measurements in mice, 1 h post ip dose. It is filed as in vivo. The settings on record: single ip dose 5 mg/kg, 1 h postdose.
Data set [8] can be described thus: Mouse oral pharmacokinetics. It counts as in vivo. The settings on record: mice, 50 mg/kg oral, Tween 80/EtOH/DMSO vehicle.
For data set [9], the system named is CRL-8155 (human lymphoblasts). Put plainly: Cytotoxicity in mammalian cells, CRL-8155. The settings on record: 48 h, growth inhibition by 50%.
Data set [10] is described as follows: Efficacy PK in acute model. It is filed as in vivo, mice. The settings on record: 50 mg/kg po b.i.d., prior to dose 7 (predose).

Several values for one entry are separate records, joined by “and”; a condition that tells them apart may be missing. Equal entries are not always repeated. Bounds are passed on as bounds.

As for `O=C(Nc1ccc2oc(-c3ccccc3)nc2c1)c1ccccc1` [Compound 30], the figures for the half-life at 1.5 μM in [1] and in data set [2] were ≥ 60 min and 10 to 20 min, respectively.

On to `O=C(Nc1ccc2oc(-c3ccccc3)nc2c1)N1CCCCC1` [Compound 32], for which the half-life at 1.5 μM was ≥ 60 min in data set [1] and 10 to 20 min in data set [2].

On to `O=C(Nc1ccc2sc(-c3ccccc3)nc2c1)N1CCCC1` [Compound 38], for which the half-life at 1.5 μM in data set [2] is > 20 min.

For the compound `O=C(Nc1ccc2sc(-c3ccccc3)nc2c1)N1CCCCC1` [Compound 40], the half-life at 1.5 μM in data set [2] is > 20 min.

On to `O=C(Nc1ccc2sc(-c3cccc(F)c3)nc2c1)N1CCN(C(=O)Nc2ccc3sc(-c4cccc(F)c4)nc3c2)CC1` [Compound 49], for which the “T. brucei EC50” value in [3] was “No activity was detected”.

Regarding `O=C(Nc1ccc2sc(-c3ccc(F)c(F)c3)nc2c1)N1CC[C@H](F)C1` [Compound 57, (S)-2-(3,4-Difluorophenyl)-5-(3-fluoro-N-pyrrolidylamido)-benzothiazole], in [4], the “HepG2 EC50” value is “no detectable toxicity”. Moreover, the average plasma level in data set [5] was 15.8 ± 8.7 µM; in [10], 9.1 ± 7.6 µM. The “Cmax, brain” value in data set [6] worked out at 54.84 ± 4.64 µM. Further, the “[compd]brain” value was “submicromolar” in data set [6] (24 h); 9.07 µM and 9.07 ± 3.973 µM in data set [7]. Besides, in data set [6] (24 h, LLQ is 0.010 μM, 50 mg/kg), the “[compd]plasma” value is “undetectable”. Also, in data set [8], the “percent of Cmax remaining at the 24 h time point” value was “Less than 1%”. In data set [9], the “CRL-8155 EC50” value is listed as “no detectable toxicity”.

On to `O=C(Nc1ccc2sc(-c3ccc(F)c(F)c3)nc2c1)N1C[C@@H](F)[C@H](F)C1` [Compound 59], for which, in data set [8], the “percent of Cmax remaining at the 24 h time point” value was 34% and the “percent of Cmax remaining at the 32 h time point” value is recorded as > 17%.

One may read the half-life as the time in which the quantity being followed falls by half.
